Results published in patent publication US20180273507A1, “CRYSTAL FORMS OF A M1 RECEPTOR POSITIVE ALLOSTERIC MODULATOR” (Merck Sharp & Dohme Corp., priority 2015, published 2018).

Test: Base catalyzed hydrolysis forced degradation, HPLC monitored
Settings: basic conditions (0.1 N), 24 hours
Procedure: The experiment was conducted on a sample stored at room/ambient temperature and another sample maintained at 60° C.

degradation / loss under basic conditions (60° C.): 1.4%
degradation / loss under basic conditions (ambient temperature): 0.2%
SMILES: Cc1ccc(Cc2cc3c(=O)n([C@H]4CCCC[C@@H]4O)cnc3c3ccccc23)cn1.O=C(O)/C=C/C(=O)O [3-[(1S,2S)-2-Hydroxycyclohexyl]-6-[(6-methyl-3-pyridinyl)methyl]benzo-[h]quinazolin-4(3H)-one (2E)-2-butenedioate]
